This note sets out measurements from paper PMC7995547, “ω‐Imidazolyl‐alkyl derivatives as new preclinical drug candidates for treating non‐alcoholic steatohepatitis” (Physiological Reports, 2021).

For this test, the system named is HFD‐induced NASH rat model (serum). Briefly: Adipocytokines and glucose metabolism in serum, NASH rat model. It counts as in vivo, Wistar rats. Conditions: for Decrease in serum TNF‐α level compared to disease group / Decrease in serum leptin compared to disease group / Increase in serum adiponectin compared to disease group / Reduction of the effect of HFD on serum adiponectin / Reduction of the effect of HFD on serum leptin: average over doses (I‐ol, I‐an); for Reduction of the effect of HFD on serum adiponectin: UDCA 40 mg/kg b.w. (elevated the concentration by); for Reduction of the effect of HFD on serum leptin: UDCA 40 mg/kg b.w. (reduced leptin concentration); for Serum leptin above the reference value of control group 1: highest concentrations (40 mg/kg b.w.). As to the method:
Studies were done using Wistar rats of female sex by the Institute of Pharmacology and Biochemistry at Minsk. The animals were 80–90 days old and weighed 180–200 g. They had free access to a liquid Lieber‐DeCarli (LDC) diet (Lieber et al., 2004) and were housed under standard conditions meaning a 12‐h light/dark cycle at 22 ± 2°C and 55 ± 5% humidity.
Group 1 was designated as the first control group; it was fed a normal standard solid diet. Group 2, as the second control group, was fed a standard amount of fat as a part of the liquid “physiological,” non‐high fat LDC diet. All other groups received the liquid ‘disease‐causing’ LDC diet (Table 2), including a high content of unsaturated fatty acids.
Both LDC diets were in a liquid form as produced by ssniff‐Spezialdiäten GmbH, Soest (Germany). The feed was provided over the entire experimental period of 16 weeks; however, the corresponding experimental substances were only administered in the last four weeks (Figure 3).
The experimental substances I‐ol, I‐an, and UDCA were dissolved in a 0.8% aqueous HPMC gel to obtain the following concentrations: (1) I‐ol at 0.4, 4, and 40 mg/kg body weight (b.w.), (2) I‐an at 0.4, 4, and 40 mg/kg b.w., and (3) UDCA at 40 mg/kg b.w. The Group‐2 and −3 rats received only HPMC as placebo. Each test encompassed 6–8 rats that were put up in a separate cage. The rats were fed ad libitum, and their intake per cage was controlled daily. In order to ensure an exact daily reproducible dosage, the experimental substances or only HPMC was administered intragastrically via oral gavage. Basically, the drug therapy of a chronic disease is the more efficient the higher the adherence of the affected patients. This is generally higher with peroral administration than with any other form of application. At the end of the experiment, the animals were sacrificed under fasting conditions, by aorta dissection and exsanguination, after anesthetizing with an intraperitoneal injection of 5% pentobarbital solution.
The concentrations of adiponectin and TNFα were measured using ELISA kits sold by BioCat GmbH (Heidelberg, Germany), whereas the one for determining leptin level was procured from BioVendor Laboratory Medicine Inc. (Brno, Czech Republic). Insulin concentration was determined using the radioimmunoassay kit RIO‐insulin‐PG‐J125 (IBOCH, Minsk, Belarus). Serum glucose level was determined based on the “Accu‐Check Active blood glucose” monitoring method developed by Roche‐Diagnostics.

Take `OCCCCCCCCCCCCn1ccnc1` [I‐ol, 12‐imidazolyl‐1‐dodecanol]: the “Reduction of the effect of HFD on serum adiponectin” value came to 78%, the “Reduction of the effect of HFD on serum leptin” value is 75% and the “Serum leptin above the reference value of control group 1” value is recorded as 3%. Further, the “Reduction of the effect of HFD on serum TNF‐α level” value (average over doses (I‐ol), UDCA 40 mg/kg b.w.) is reported as 66%. Under “UDCA 40 mg/kg b.w.”, the “Decrease in serum TNF‐α level compared to disease group” value amounted to 49%, the “Decrease in serum leptin compared to disease group” value is 22% and the “Increase in serum adiponectin compared to disease group” value is on record as 64%. In addition, the “Serum adiponectin above the reference value of control group 1” value (highest concentration (40 mg/kg b.w.)) worked out at 4%.

With `CCCCCCCCCCCCn1ccnc1` [I‐an, 1‐imidazolyldodecane], the “Reduction of the effect of HFD on serum adiponectin” value is recorded as 38%, the “Reduction of the effect of HFD on serum leptin” value worked out at 62% and the “Serum leptin above the reference value of control group 1” value was determined as 1%. Moreover, for the setting “0.4, 4, 40 mg/kg b.w.”, the “Dose dependence of the effect on serum adiponectin” value is on record as “weak, significant (p < 0.05) linear dose‐dependent effect” and the “Dose dependence of the effect on serum leptin” value is listed as “weak yet significant (p < 0.05) linear dose‐dependent effect”. Also, for the setting “UDCA 40 mg/kg b.w.”, the “Decrease in serum TNF‐α level compared to disease group” value is reported as “not significant”, the “Decrease in serum leptin compared to disease group” value came out at 18% and the “Increase in serum adiponectin compared to disease group” value is 31%.
